Results reported in patent publication US11155560B2, “Substituted pyrazolo[1,5-a]pyrimidines for modulating CDK9 activity” (Kronos Bio, Inc., priority 2018, dated 2021).

Target: CDK9/cyclin T1 (Homo sapiens, UniProt P50750)
Assay: CDK9/cyclin T1 kinase inhibition, LANCE assay
Format: biochemical
Settings: reaction time 60 minutes, 10 μM ATP, 10-dose IC50, compounds 35-126 (127-208 listed, method not stated), read-out: CDK9/cyclin T1 Potency Grade
Method: Exemplary compounds of the invention (35-126) were tested for inhibition of CDK9/cyclin T1 kinase. Using a LANCE assay (reaction time 60 minutes), the compounds were tested in 10-dose IC50 duplicate mode with a 3-fold serial dilution starting at 4.3 μM. […] Reactions were carried out at 10 μM ATP. Data was normalized to positive and negative controls and curve fits were analyzed with XLFIT5 as % inhibition vs. log [compound concentration] using a 4-parameter logistic model205. Fit=(A+((B−A)/(1+((C/x)^D)))); Res =(y-fit).

Chain of CDK9/cyclin T1 (P50750 whole entry): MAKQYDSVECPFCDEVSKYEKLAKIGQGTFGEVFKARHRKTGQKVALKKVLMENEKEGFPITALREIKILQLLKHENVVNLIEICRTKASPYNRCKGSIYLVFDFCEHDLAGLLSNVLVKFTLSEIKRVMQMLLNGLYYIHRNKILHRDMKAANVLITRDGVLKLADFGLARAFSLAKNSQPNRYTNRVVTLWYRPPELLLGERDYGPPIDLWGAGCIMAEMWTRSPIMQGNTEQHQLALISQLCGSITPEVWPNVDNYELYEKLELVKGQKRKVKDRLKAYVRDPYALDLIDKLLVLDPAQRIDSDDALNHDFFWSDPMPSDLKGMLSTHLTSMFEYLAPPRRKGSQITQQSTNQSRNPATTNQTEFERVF
Chain of CDK9/cyclin T1 (O60563 whole entry partner): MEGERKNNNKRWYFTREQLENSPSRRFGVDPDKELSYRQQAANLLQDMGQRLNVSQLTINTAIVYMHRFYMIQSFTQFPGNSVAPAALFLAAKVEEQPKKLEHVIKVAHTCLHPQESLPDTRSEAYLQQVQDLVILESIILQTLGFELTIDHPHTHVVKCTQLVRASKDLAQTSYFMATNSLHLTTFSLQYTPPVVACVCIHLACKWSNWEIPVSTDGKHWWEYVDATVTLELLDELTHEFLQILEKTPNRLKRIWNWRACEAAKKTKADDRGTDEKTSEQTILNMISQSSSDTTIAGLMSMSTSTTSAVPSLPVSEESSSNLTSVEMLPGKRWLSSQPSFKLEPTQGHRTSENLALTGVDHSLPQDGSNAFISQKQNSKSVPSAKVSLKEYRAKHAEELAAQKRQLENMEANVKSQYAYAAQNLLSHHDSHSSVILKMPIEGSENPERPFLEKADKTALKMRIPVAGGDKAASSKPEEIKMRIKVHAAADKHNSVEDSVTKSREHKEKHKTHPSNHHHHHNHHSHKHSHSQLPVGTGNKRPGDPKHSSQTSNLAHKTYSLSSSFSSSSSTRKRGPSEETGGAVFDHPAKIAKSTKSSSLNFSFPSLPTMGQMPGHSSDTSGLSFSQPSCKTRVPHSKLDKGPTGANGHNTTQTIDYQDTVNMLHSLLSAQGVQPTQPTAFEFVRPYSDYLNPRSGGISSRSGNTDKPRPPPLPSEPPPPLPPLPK

Row | Structure (SMILES) | IC50 [nM]
1 | CC(C)c1cc(N[C@H]2CC[C@H](N)C2)n2nc(N)cc2n1 [Compound 183] | > 1000
2 | CCNc1cc(N[C@H]2CC[C@H](N)C2)n2nccc2n1 [Compound 189] | 1 to 500
3 | N[C@@H]1CC[C@@H](Nc2cc(C3CC3)nc3ccnn23)C1 [Compound 43] | 1 to 500
4 | N[C@H]1CC[C@H](Nc2cc(C3=CCCCC3)nc3ccnn23)C1 [Compound 200] | 1 to 500
5 | CC(C)c1cc(N[C@@H]2CCN(C)C2)n2nccc2n1 [Compound 135] | > 1000
6 | N[C@@H]1CC[C@@H](Nc2cc(C3CC3)nc3ccnn23)C1 [Compound 134] | 1 to 500
7 | Cc1cnn2c(N[C@@H]3CC[C@@H](NC(=O)OC(C)C)C3)cc(C(C)C)nc12 [Compound 176] | 1 to 500
8 | COCCNc1cc(N[C@H]2CC[C@H](N)C2)n2nccc2n1 [Compound 88] | 501 to 1000
9 | CCN(CC)c1cc(N[C@H]2CC[C@H](N)C2)n2nccc2n1 [Compound 170] | 1 to 500
10 | COc1cc(C)cc(-c2cc(N[C@H]3CC[C@H](N)C3)n3nccc3n2)c1 [Compound 161] | 1 to 500
11 | CC(C)c1cc(N[C@@H]2CC[C@@H](N(O)C(N)=O)C2)n2nccc2n1 [Compound 151] | 1 to 500
12 | Cn1cncc1-c1cc(N[C@H]2CC[C@H](NC=O)C2)n2nccc2n1 [Compound 169] | 501 to 1000
13 | CCc1cc(N[C@H]2CC[C@H](N)C2)n2nccc2n1 [Compound 138] | 1 to 500
14 | COc1cc(N[C@@H]2CC[C@@H](N)C2)n2nccc2n1 [Compound 168] | 501 to 1000
15 | CC(C)(C#N)c1ccc(-c2cc(N[C@H]3CC[C@H](N)C3)n3nccc3n2)cc1 [Compound 204] | 1 to 500
16 | N[C@H]1CC[C@H](Nc2cc(-c3ccc4c(c3)OCO4)nc3c(Cl)cnn23)C1 [Compound 195] | 1 to 500
17 | COc1cc(N[C@@H]2CC[C@@H](N)C2)n2nccc2n1 [Compound 77] | 501 to 1000
18 | CCOc1cc(N[C@H]2CC[C@H](N)C2)n2nccc2n1 [Compound 182] | 501 to 1000
19 | O=C(N[C@H]1CC[C@H](Nc2cc(C3CC3)nc3ccnn23)C1)OCc1ccccc1 [Compound 84] | > 1000

Row | Structure (SMILES) | IC50 [nM]
20 | CC(C)c1cc(N[C@@H]2CC[C@@H](NC(=O)OCc3ccccc3)C2)n2nccc2n1 [Compound 141] | 1 to 500
21 | CC(C)OC(=O)N[C@@H]1CC[C@@H](Nc2cc(C(C)C)nc3c(Cl)cnn23)C1 [Compound 68] | 501 to 1000
22 | O=CN[C@@H]1CC[C@@H](Nc2cc(C3CC3)nc3ccnn23)C1 [Compound 142] | 1 to 500
23 | COCCNc1cc(N[C@H]2CC[C@H](N)C2)n2nccc2n1 [Compound 179] | 501 to 1000
24 | N[C@H]1CC[C@H](Nc2cc(C3CCCCC3)nc3ccnn23)C1 [Compound 206] | 1 to 500
25 | CCC(C)c1cc(N[C@@H]2CC[C@@H](NC=O)C2)n2nccc2n1 (some centres unmarked) [Compound 52] | 1 to 500
26 | Cc1cnn2c(N[C@@H]3CC[C@@H](NC(=O)OCc4ccccc4)C3)cc(C(C)C)nc12 [Compound 178] | 1 to 500
27 | N[C@H]1CC[C@H](Nc2cc(Nc3ccc4ccccc4c3)nc3ccnn23)C1 [Compound 162] | 1 to 500
28 | CCOc1cc(N[C@H]2CC[C@H](N)C2)n2nccc2n1 [Compound 91] | 501 to 1000
29 | COC(=O)N[C@H]1CC[C@H](Nc2cc(C3CC3)nc3ccnn23)C1 [Compound 89] | > 1000
30 | N[C@H]1CC[C@H](Nc2cc(-c3cccc(Cl)c3)nc3ccnn23)C1 [Compound 166] | 1 to 500
31 | CN(Cc1ccccc1)c1cc(N[C@H]2CC[C@H](N)C2)n2nccc2n1 [Compound 188] | 1 to 500
32 | N[C@@H]1CC[C@@H](Nc2cc(C3CCC3)nc3ccnn23)C1 [Compound 133] | 1 to 500
33 | CCC(CC)c1cc(N[C@H]2CC[C@H](NC(=O)c3cnc(C)cn3)C2)n2nccc2n1 [Compound 148] | 1 to 500
34 | CCC(CC)c1cc(N[C@H]2CC[C@H](Nc3ccccn3)C2)n2nccc2n1 [Compound 149] | 1 to 500
35 | N[C@H]1CC[C@H](Nc2cc(-c3ccc(C4CC4)cc3)nc3ccnn23)C1 [Compound 205] | 1 to 500
36 | CC(C)c1cc(N[C@@H]2CC[C@@H](N(C)C=O)C2)n2nccc2n1 [Compound 146] | 1 to 500
37 | N[C@H]1CC[C@H](Nc2cc(C3=CCOCC3)nc3ccnn23)C1 [Compound 110] | 501 to 1000
38 | CC(=O)Nc1cc(N[C@@H]2CC[C@@H](N)C2)n2nccc2n1 [Compound 128] | > 1000

Row | Structure (SMILES) | IC50 [nM]
39 | CC(C)(C#N)c1ccc(-c2cc(N[C@H]3CC[C@H](N)C3)n3nccc3n2)cc1 [Compound 113] | 1 to 500
40 | CC(C)c1cc(N[C@@H]2CC[C@@H](NC=O)C2)n2nccc2n1 [Compound 46] | 1 to 500
41 | CC(C)c1ccc(-c2cc(N[C@H]3CC[C@H](N)C3)n3nccc3n2)cc1 [Compound 199] | 1 to 500
42 | N[C@H]1CC[C@H](Nc2cc(-c3cccc4ccccc34)nc3ccnn23)C1 [Compound 172] | 1 to 500
43 | COCCN[C@@H]1CC[C@@H](Nc2cc(C(C)C)nc3ccnn23)C1 [Compound 150] | 1 to 500
44 | CC(C)c1ccc(-c2cc(N[C@H]3CC[C@H](N)C3)n3nccc3n2)cc1 [Compound 108] | 1 to 500
45 | N[C@H]1CC[C@H](Nc2cc(-c3ccc(F)cc3)nc3ccnn23)C1 [Compound 107] | 1 to 500
46 | COCCN[C@@H]1CC[C@@H](Nc2cc(C(C)C)nc3ccnn23)C1 [Compound 59] | 1 to 500
47 | N[C@H]1CC[C@H](Nc2cc(C#CC3CC3)nc3ccnn23)C1 [Compound 120] | 1 to 500
48 | N[C@H]1CC[C@H](Nc2cc(-c3ccc4ccccc4c3)nc3ccnn23)C1 [Compound 160] | 501 to 1000
49 | N[C@H]1CC[C@H](Nc2cc(-c3cc(Cl)cc(Cl)c3)nc3ccnn23)C1 [Compound 173] | 1 to 500
50 | N[C@H]1CC[C@H](Nc2cc(C3=CCCCC3)nc3ccnn23)C1 [Compound 109] | 1 to 500
51 | N[C@H]1CC[C@H](Nc2cc(C3CCC(F)(F)CC3)nc3ccnn23)C1 [Compound 125] | 1 to 500
52 | CC(C)OC(=O)N[C@@H]1CC[C@@H](Nc2cc(C(C)C)nc3c(Cl)cnn23)C1 [Compound 159] | 501 to 1000
53 | N[C@H]1CC[C@H](Nc2cc(-c3cccc(F)c3)nc3ccnn23)C1 [Compound 111] | 1 to 500
54 | CC(C)c1cc(N[C@@H]2CC[C@@H](NC(=O)OCc3ccccc3)C2)n2ncc(Cl)c2n1 [Compound 158] | 1 to 500
55 | CC1(C)CC1c1cc(N[C@H]2CC[C@H](N)C2)n2nccc2n1 (some centres unmarked) [Compound 117] | 1 to 500
56 | CC(C)c1cc(N[C@H]2CC[C@H](N)C2)n2ncc(C#N)c2n1 [Compound 155] | 1 to 500
57 | N[C@H]1CC[C@H](Nc2cc(-c3ccc(C4CC4)cc3)nc3ccnn23)C1 [Compound 114] | 1 to 500

Now from value to compound:

Row | IC50 [nM] | Structure (SMILES)
58 | 1 to 500 | CC1(C)CC1c1cc(N[C@H]2CC[C@H](N)C2)n2nccc2n1 (some centres unmarked) [Compound 208]
59 | 1 to 500 | CN(Cc1ccccc1)c1cc(N[C@H]2CC[C@H](N)C2)n2nccc2n1 [Compound 97]
60 | 1 to 500 | CC(C)c1cc(N[C@@H]2CC[C@@H](N(O)C(N)=O)C2)n2nccc2n1 [Compound 60]
61 | 1 to 500 | Cc1cnn2c(N[C@@H]3CC[C@@H](NC(=O)OC(C)C)C3)cc(C(C)C)nc12 [Compound 85]
62 | 1 to 500 | N[C@H]1CC[C@H](Nc2cc(C3=CCCOC3)nc3ccnn23)C1 [Compound 112]
63 | 1 to 500 | COC(=O)N[C@@H]1CC[C@@H](Nc2cc(C(C)C)nc3ccnn23)C1 [Compound 145]
64 | 1 to 500 | COc1cc(C)cc(-c2cc(N[C@H]3CC[C@H](N)C3)n3nccc3n2)c1 [Compound 70]
65 | 1 to 500 | CC(C)c1cc(N[C@H]2CC[C@H](N)C2)n2ncc(C#N)c2n1 [Compound 64]
66 | 1 to 500 | Cc1cnn2c(N[C@H]3CC[C@H](N)C3)cc(CC(C)C)nc12 [Compound 184]
67 | 1 to 500 | CCC(C)c1cc(N[C@@H]2CC[C@@H](NC=O)C2)n2nccc2n1 (some centres unmarked) [Compound 143]
68 | 1 to 500 | CC(C)c1cc(N[C@@H]2CC[C@@H](NC(=O)OCc3ccccc3)C2)n2ncc(Cl)c2n1 [Compound 67]
69 | 1 to 500 | CN/C(=N/C#N)N[C@@H]1CC[C@@H](Nc2cc(C(C)C)nc3ccnn23)C1 [Compound 63]
70 | 1 to 500 | CN(CCO)c1cc(N[C@H]2CC[C@H](N)C2)n2nccc2n1 [Compound 90]
71 | 1 to 500 | Cc1cnn2c(N[C@@H]3CC[C@@H](NC(=O)OCc4ccccc4)C3)cc(C(C)C)nc12 [Compound 87]
72 | 1 to 500 | N[C@@H]1CC[C@@H](Nc2cc(C3CCC3)nc3ccnn23)C1 [Compound 42]
73 | 1 to 500 | CC(=O)Nc1cc(N[C@@H]2CC[C@@H](N)C2)n2ncc(Cl)c2n1 [Compound 127]
74 | 1 to 500 | COc1cc(-c2cc(N[C@H]3CC[C@H](N)C3)n3nccc3n2)ccn1 [Compound 101]
75 | 1 to 500 | CC(C)c1cc(N[C@@H]2CC[C@@H](NC(=N)N)C2)n2nccc2n1 [Compound 157]
76 | 1 to 500 | Cc1cccc(-c2cc(N[C@H]3CC[C@H](N)C3)n3nccc3n2)c1 [Compound 164]
77 | 1 to 500 | CN1CCN(c2cc(N[C@H]3CC[C@H](N)C3)n3nccc3n2)CC1=O [Compound 102]
78 | 1 to 500 | N[C@H]1CC[C@H](Nc2cc(C#Cc3ccccc3)nc3ccnn23)C1 [Compound 118]
79 | 1 to 500 | CCC(CC)c1cc(N[C@H]2CC[C@H](NC(=O)c3cnc(C)cn3)C2)n2nccc2n1 [Compound 57]
80 | 1 to 500 | N[C@H]1CC[C@H](Nc2cc(-c3ccc4c(c3)OCO4)nc3ccnn23)C1 [Compound 152]
81 | 1 to 500 | N[C@H]1CC[C@H](Nc2cc(-c3ccc4c(c3)OCO4)nc3c(Cl)cnn23)C1 [Compound 104]
82 | 1 to 500 | Cn1cncc1-c1cc(N[C@H]2CC[C@H](N)C2)n2nccc2n1 [Compound 174]
83 | 1 to 500 | N[C@H]1CC[C@H](Nc2cc(Nc3ccc4ccccc4c3)nc3ccnn23)C1 [Compound 71]
